From ChEMBL document CHEMBL1201862, “PubChem BioAssay data set” (2004)
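Exposure lasted 48 hours, with cells grown in 96-well plates and compounds tested at five concentrations. The concentration for 50% growth inhibition is given as GI50.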 Active and inactive are the calls of the source. Rule as the data show it: active = GI50 up to about 1.1 µM and inactive = higher.

Experiments:
Assay in all cases: NCI tumour cell line growth inhibition, 48 h
ACHN = tested on: ACHN
BT-549 = tested on: BT-549
CCRF-CEM = tested on: CCRF-CEM
HCC 2998 = tested on: HCC 2998
IGROV-1 = tested on: IGROV-1
KM12 = tested on: KM12
LOX IMVI = tested on: LOX IMVI
M14 = tested on: M14
MCF7 = tested on: MCF7
MDA-MB-435 = tested on: MDA-MB-435
MDA-N = tested on: MDA-N
Malme-3M = tested on: Malme-3M
NCI-H460 = tested on: NCI-H460
NCI-H522 = tested on: NCI-H522
NCI/ADR-RES = tested on: NCI/ADR-RES
OVCAR-8 = tested on: OVCAR-8
PC-3 = tested on: PC-3
RXF 393 = tested on: RXF 393
UACC-257 = tested on: UACC-257
UACC-62 = tested on: UACC-62

SMILES	GI50 (ACHN)	GI50 (BT-549)	GI50 (CCRF-CEM)	GI50 (HCC 2998)	GI50 (IGROV-1)	GI50 (KM12)	GI50 (LOX IMVI)	GI50 (M14)	GI50 (MCF7)	GI50 (MDA-MB-435)	GI50 (MDA-N)	GI50 (Malme-3M)	GI50 (NCI-H460)	GI50 (NCI-H522)	GI50 (NCI/ADR-RES)	GI50 (OVCAR-8)	GI50 (PC-3)	GI50 (RXF 393)	GI50 (UACC-257)	GI50 (UACC-62)
Oc1c(Cl)ccc2cccnc12	3.61 µM (inactive)	15.5 µM (inactive)	0.347 µM (active)	12.7 µM (inactive)	0.223 µM (active)	4.88 µM (inactive)	1.94 µM (inactive)	3 µM (inactive)	1.02 µM (active)	10.1 µM (inactive)	16.6 µM (inactive)	8.89 µM (inactive)	3.4 µM (inactive)	1.63 µM (inactive)	0.432 µM (active)	2.63 µM (inactive)	4.71 µM (inactive)	1.83 µM (inactive)	6.03 µM (inactive)	2.24 µM (inactive)
Nc1nc(Cl)cc(NCC2(O)CCCC2)n1	> 100 µM (inactive)	> 100 µM (inactive)	> 100 µM (inactive)	> 100 µM (inactive)	> 100 µM (inactive)	> 100 µM (inactive)	> 100 µM (inactive)		> 100 µM (inactive)	> 100 µM (inactive)	> 100 µM (inactive)	> 100 µM (inactive)	> 100 µM (inactive)	> 100 µM (inactive)	> 100 µM (inactive)	> 100 µM (inactive)	> 100 µM (inactive)	> 100 µM (inactive)	> 100 µM (inactive)	> 100 µM (inactive)
CC(=O)c1c(N=[N+]=[N-])c2cccc3c2n(c1=O)CCC3	24.9 µM (inactive)	20.4 µM (inactive)	19.1 µM (inactive)	16.9 µM (inactive)	20.1 µM (inactive)	14.6 µM (inactive)	15.1 µM (inactive)	13.6 µM (inactive)	19.8 µM (inactive)	19.1 µM (inactive)	18.5 µM (inactive)	13.2 µM (inactive)	14.4 µM (inactive)	13.9 µM (inactive)	19.2 µM (inactive)	0.957 µM (active)	17.3 µM (inactive)	20.5 µM (inactive)	16.6 µM (inactive)	16.5 µM (inactive)
COc1cc(-c2c(C#N)c(N)c(C#N)c3c2COc2ccccc2-3)cc(OC)c1OC	27.8 µM (inactive)	31.6 µM (inactive)	> 100 µM (inactive)	16.6 µM (inactive)	26.7 µM (inactive)	> 100 µM (inactive)	39.2 µM (inactive)	> 100 µM (inactive)	> 100 µM (inactive)	> 100 µM (inactive)	> 100 µM (inactive)	20.3 µM (inactive)	> 77.3 µM (inactive)	84.1 µM (inactive)	42.5 µM (inactive)	28.6 µM (inactive)	> 25.6 µM (inactive)	16.4 µM (inactive)	> 100 µM (inactive)	30.2 µM (inactive)
CSc1[nH]nc(N)c1C(=O)Nc1ccc(Cl)cc1		89.7 µM (inactive)	27 µM (inactive)	99.8 µM (inactive)	98.9 µM (inactive)	55.6 µM (inactive)	76.9 µM (inactive)	68.9 µM (inactive)	84.7 µM (inactive)	> 100 µM (inactive)	> 100 µM (inactive)	63.7 µM (inactive)	79.4 µM (inactive)	27 µM (inactive)	35.2 µM (inactive)	40.9 µM (inactive)	55.5 µM (inactive)	22.9 µM (inactive)	> 100 µM (inactive)	90.6 µM (inactive)
CCOC(=O)c1ccc(C(=O)/C(C#N)=C2\CCCN2C)[nH]1	> 100 µM (inactive)	> 100 µM (inactive)	> 100 µM (inactive)	> 100 µM (inactive)	> 100 µM (inactive)	> 100 µM (inactive)	> 100 µM (inactive)	> 100 µM (inactive)	> 100 µM (inactive)	> 100 µM (inactive)	> 100 µM (inactive)	> 100 µM (inactive)	> 100 µM (inactive)	> 100 µM (inactive)	> 100 µM (inactive)	> 100 µM (inactive)	> 100 µM (inactive)	> 100 µM (inactive)	> 100 µM (inactive)	> 100 µM (inactive)
CN(C)CCNC(=O)c1cc(-c2nccn2C)nc2ccccc12	58.3 µM (inactive)	81.1 µM (inactive)	> 100 µM (inactive)	> 100 µM (inactive)	> 100 µM (inactive)	> 100 µM (inactive)	> 100 µM (inactive)	> 100 µM (inactive)	70.1 µM (inactive)	> 100 µM (inactive)	> 100 µM (inactive)	> 100 µM (inactive)	34.4 µM (inactive)	> 100 µM (inactive)	> 100 µM (inactive)	> 100 µM (inactive)	> 100 µM (inactive)	45.4 µM (inactive)	> 100 µM (inactive)	> 100 µM (inactive)
C[C@@]12C[C@@H](c3ccccc3O1)N1Cc3ccccc3CSC1=N2	> 100 µM (inactive)	95.9 µM (inactive)		33.3 µM (inactive)	> 100 µM (inactive)	> 100 µM (inactive)	35.5 µM (inactive)	90.4 µM (inactive)	50.4 µM (inactive)	> 100 µM (inactive)	93.5 µM (inactive)	79.8 µM (inactive)	42.8 µM (inactive)	49.7 µM (inactive)	> 100 µM (inactive)	> 100 µM (inactive)	83.6 µM (inactive)	> 100 µM (inactive)	66.5 µM (inactive)	81.5 µM (inactive)
Cc1cc2c(c(/C=N/c3ccc([N+](=O)[O-])cc3)c1)OC1(C=C2)Oc2ccccc2C(=O)N1C (stereo not drawn)	14.8 µM (inactive)	19.6 µM (inactive)	12.2 µM (inactive)	19.8 µM (inactive)	18.8 µM (inactive)	20 µM (inactive)	12.8 µM (inactive)	23.3 µM (inactive)	17.6 µM (inactive)	31.2 µM (inactive)	24.8 µM (inactive)		21.8 µM (inactive)	21.5 µM (inactive)	18.9 µM (inactive)	16.1 µM (inactive)	18 µM (inactive)	18.5 µM (inactive)	21.2 µM (inactive)	17.2 µM (inactive)
CCS(=O)(=O)CCn1cnc2c1c(=O)n(C)c(=O)n2C	> 100 µM (inactive)	> 100 µM (inactive)	> 100 µM (inactive)	> 100 µM (inactive)	> 100 µM (inactive)	> 100 µM (inactive)	> 100 µM (inactive)	> 100 µM (inactive)	> 100 µM (inactive)	> 100 µM (inactive)	> 100 µM (inactive)		> 100 µM (inactive)	> 100 µM (inactive)	> 100 µM (inactive)	> 100 µM (inactive)	> 100 µM (inactive)	> 100 µM (inactive)	> 100 µM (inactive)	> 100 µM (inactive)
CCOC(=O)C(Cc1ccc(N(CCCl)CCCl)cc1)NC(=O)C(Cc1ccccc1)NC=O (stereo not drawn)	0.00959 µM (active)	0.437 µM (active)	0.0526 µM (active)	0.0186 µM (active)	0.0492 µM (active)	0.48 µM (active)	0.0713 µM (active)	0.102 µM (active)	0.143 µM (active)	0.263 µM (active)	0.24 µM (active)	0.109 µM (active)	0.261 µM (active)	0.117 µM (active)	0.338 µM (active)	0.258 µM (active)	0.27 µM (active)	0.0614 µM (active)	0.24 µM (active)	0.094 µM (active)
Cc1sc2ncnc(NCCc3ccccc3)c2c1C	12.4 µM (inactive)	15.2 µM (inactive)	13 µM (inactive)	15.1 µM (inactive)	12.7 µM (inactive)	13.4 µM (inactive)	4.82 µM (inactive)	18.1 µM (inactive)	12.5 µM (inactive)	13.7 µM (inactive)	10.1 µM (inactive)	17.5 µM (inactive)	8.99 µM (inactive)	8.59 µM (inactive)	6.22 µM (inactive)	11.8 µM (inactive)	17.3 µM (inactive)	12.3 µM (inactive)	1.04 µM (active)	11.9 µM (inactive)
CCCCCCNC(=O)CCC(NC(=O)c1ccc(N(C)Cc2cnc3nc(N)nc(N)c3n2)cc1)C(=O)NCCCCCC (stereo not drawn)	> 100 µM (inactive)	> 100 µM (inactive)	> 100 µM (inactive)	> 100 µM (inactive)	16.2 µM (inactive)	> 100 µM (inactive)	12.4 µM (inactive)	73.8 µM (inactive)	18.3 µM (inactive)	> 100 µM (inactive)	9.89 µM (inactive)		47.2 µM (inactive)	63 µM (inactive)	> 100 µM (inactive)	> 100 µM (inactive)	> 100 µM (inactive)	39.4 µM (inactive)	37.1 µM (inactive)	2.68 µM (inactive)
CN(C)Cc1cc(C(=O)/C=C/c2ccccc2Cl)cc(CN(C)C)c1O	4.45 µM (inactive)	8.51 µM (inactive)	3.4 µM (inactive)	20.2 µM (inactive)	13.6 µM (inactive)	7.8 µM (inactive)	3.33 µM (inactive)	11.2 µM (inactive)	9.66 µM (inactive)	13.5 µM (inactive)	13 µM (inactive)	11 µM (inactive)	4.6 µM (inactive)	3.93 µM (inactive)	12.8 µM (inactive)	10.1 µM (inactive)	13.2 µM (inactive)	17.1 µM (inactive)	15.4 µM (inactive)	
